The record followed here is patent US6780995B2, “Activated iododerivatives for the treatment of cancer and aids” (Isotechnika Inc., priority 1997, dated 2004).

pIC50: −log10 of the molar value. Bounds are passed on as bounds.

One data set relates to RPMI 8226 cells. The data set is described as follows: IC50 assay, inhibition of cell proliferation and growth, RPMI 8226. Format: cell-based. Particulars: Homo sapiens; RPMI 8226 myeloma cell line; read-out: IC50 Concentrations, RPM 18226. The procedure: (§1) Cell culture: The human cell lines were propagated under sterile conditions in RPMI 1640 (CellGrow) with 10% fetal bovine serum (Hyclone), 2 mM L-glutamine, and sodium bicarbonate (complete medium) and incubated at 37° C. in HEPA-filtered Sterilcult CO2 tissue culture incubators (Forma) with 5% CO^2 and 95% humidity (Table 1). The murine leukemia cell lines were propagated in Dulbecco's MEM media with 10% equine serum (Hyclone), 2 mM L-glutamine, and sodium bicarbonate (complete medium) and incubated as described. The cells were subcultured twice weekly and used in experiments. The culture was screened for mycoplasma contamination using GeneProbe™ (Fisher) and positive cultures were cured of contaminants over three passages using constant treatment with BM-Cyclin™ antibiotic combination (Boehringer Mannheim). Only cultures confirmed as mycoplasma free were used in testing compounds for anticellular activity.
(§2) The test compounds were stored at 4° C. under light protected conditions. The test compounds were weighed and dissolved in DMSO. The dissolved compounds were then serially diluted in warm medium (RPMI 1640 or Dulbecco's MEM) under constant mixing to minimize precipitation. The positive control drug doxorubicin was diluted in water followed by dilution in media to achieve a final concentration of 200 nM.
(§3) For all experiments, the cells were harvested and centrifuged to remove the media, and suspended in fresh completed medium. Samples were taken to determine cell density. The cell count was determined with a Coulter Model Z1 cell counter and viability was measured with propidium iodide staining followed by analysis on a Coulter EPPICS Elite Flow cytometer. The cell samples sere adjusted with complete medium to a density of 5×10^4/mL for adherent cell lines and 1×10^5/mL for suspension lines. Tissue culture cluster plates (96 well, cat. No. 3595 Costar for adherent human lines and cat No. 25850 Corning for murine leukemias) were seeded with 100 μL cells and incubated as described. Replicate groups of plates were set up for each line to accommodate the exposure options for single agents and combinations. For each dilution 8 wells (100 μL samples of cells) were treated with 100 μL of dosing solution one day after plating. Each cluster plate contained a cell control (8 wells, mock-treated with complete medium), a medium control (3 wells with medium used to subtract out signal generated by media conditions), and an air blank (1 well, for calibrating the plate reader).
(§4) Using the procedures described above, concentrations of the Example compounds necessary to inhibit cell proliferation and growth by 50% (1C50 values) were determined in the test cell lines.
Turning to `O=C(NC1=NCCS1)c1cc([N+](=O)[O-])ccc1I` [Ref. No. 23, 2-(2′-Iodo-5′-Nitro-Benzamido)-2-Thiazoline], the pIC50 is 3.63.

Tested on in another data set: not given
Experiment: not given
Settings: not given
Broadly, the melting point is the temperature of the solid-liquid transition. As for `O=C(NC1=NCCS1)c1cc([N+](=O)[O-])ccc1I` [Ref. No. 23, 2-(2′-Iodo-5′-Nitro-Benzamido)-2-Thiazoline], the melting point fell in the range of 176 to 179 °C.

The next data set relates to P388 cells. Description: IC50 assay (XTT), inhibition of cell proliferation and growth, P388. Format: cell-based. Conditions: Mus musculus; P388 murine leukemia cell line; XTT dye conversion; read-out: IC50 Concentrations, P388. How it is done: as §1, §2, §3
(§5) Anticellular effects of the murine leukemia cell lines were assessed with the XTT dye conversion assay which is more suited to suspension cultures. On the day of analysis XTT[2,3-bis(2-methoxy-4-nitro-5-sulfophenyl)-5-[(phenylamino)carbenyl]-2H-tetrazolium hydroxide, inner salt, sodium salt (Sigma)] was weighed out and dissolved at 1 mg/mL in media. PMS (phenazine methosulfate) was prepared at 5 mM in PBS (phosphate buffered saline) and stored as a stock solution 4° C. The PMS was mixed with dissolved XTT to a final concentration of 0.025 mM. Sample wells were treated with 50 μL of the XTT solution and the plates were incubated for four hours at 37° C. to allow for conversion into the liquid soluble formazan product. After the incubation period the reaction was stopped by adding 10 μL of 10% SDS solution per well and the wells contents of each plate were mixed by agitation. The absorbancy of formazan in each monolayer was measured at 450 nm (620 nm reference beam) on a Denley Anthos 2001 microplate reader. The data were transferred via the ARCOM software capture program into Lotus 1-2-3 for processing.
as §4
In general terms: Tetrazolium dyes change colour on reduction, which living cells bring about.
For `O=C(NC1=NCCS1)c1cc([N+](=O)[O-])ccc1I` [Ref. No. 23, 2-(2′-Iodo-5′-Nitro-Benzamido)-2-Thiazoline], the pIC50 is 3.45.

Staying with this data set, now noted: P388 murine leukemia cell line; XTT dye conversion; read-out: IC50 Concentrations, P388.
With “N-(3′-Pyridyl)-2-Iodo-5-Nitrophenyl Hydrazide [Ref. No. 11]”, the pIC50 is less than 4.26.
Still for that read-out and setting: with “N-(4′-Pyridyl)-2-Iodo-5-Nitrophenyl Hydrazide [Ref. No. 10]” the figure was less than 4.73.

A further data set concerns SK-OV-3 cells. Description: IC50 assay, inhibition of cell proliferation and growth, SK-OV-3. It counts as cell-based, human. Conditions: Homo sapiens; SK-OV-3 ovarian adenocarcinoma cell line; neutral red or crystal violet; read-out: IC50 Concentrations, SK-OV-3. The procedure:
as §1, §2, §3
(§6) Anticellular effects of the compounds for the adherent cell lines were assessed with neutral red dye. On the day of analysis, the media was removed from sample cell monolayers and replaced with 0.1 mL of neutral red solution (0.5% neutral red, HBSS:RPMI 1640 (1:1), 0.05 M HEPES, pH 7.2). After incubation of the samples at 37° C. for 1 hour the excess dye was removed with blotting and the monolayers were washed twice with 0.85% NaCl solution (0.1 mL per wash). The cell associated dye was extracted by adding 0.2 mL of a 0.1 M NaH2PO4:ethanol (1:1) solution/well followed by incubation for 1 hour at 35° C. The absorbency of neutral red in each monolayer was measured at 550 nm (620 nm reference beam) on a Denley Anthos 2001 microplate reader. The data were transferred via the ARCOM software capture program in Lotus 1-2-3 for processing.
(§7) In assays where technical difficulties due to crystalization of the neutral red occurred the crystal violet staining procedure was employed to measure the amount of cells were left on the plate. Crystal violet staining solution [0.5% crystal violet (w/v), 50% methanol (v/v), 45% saline (v/v), and 5% formalin (v/v)] were prepared on the day of staining. After the media was removed from the sample wells, two drops of crystal violet stain were added to each well and the samples were incubated at ambient temperature for 10 minutes. […]
For the compound `O=C(NC1=NCCS1)c1cc([N+](=O)[O-])ccc1I` [Ref. No. 23, 2-(2′-Iodo-5′-Nitro-Benzamido)-2-Thiazoline], the pIC50 is less than 3.30.

The data set is the same for the next values; noted with them: SK-OV-3 ovarian adenocarcinoma cell line; neutral red or crystal violet; read-out: IC50 Concentrations, SK-OV-3.
Consider “N-(3′-Pyridyl)-2-Iodo-5-Nitrophenyl Hydrazide [Ref. No. 11]”, for which the pIC50 was 3.42.
With “N-(4′-Pyridyl)-2-Iodo-5-Nitrophenyl Hydrazide [Ref. No. 10]”, the pIC50 was 3.44.

The subject of a further data set is COLO 205 cells. The data set is described as follows: IC50 assay, inhibition of cell proliferation and growth, COLO 205. It counts as cell-based, human. Particulars: COLO 205 colon adenocarcinoma cell line; neutral red or crystal violet; read-out: IC50 Concentrations, COLO 205. The procedure: as §1, §2, §3, §6, §7
In the case of “N-(3′-Pyridyl)-2-Iodo-5-Nitrophenyl Hydrazide [Ref. No. 11]”, the pIC50 is 3.95.
On the same count and under the same terms, the figure for “N-(4′-Pyridyl)-2-Iodo-5-Nitrophenyl Hydrazide [Ref. No. 10]” is 3.36.

The data set is the same for the next values; noted with them: Homo sapiens; COLO 205 colon adenocarcinoma cell line; neutral red or crystal violet; read-out: IC50 Concentrations, COLO 205.
For `O=C(NC1=NCCS1)c1cc([N+](=O)[O-])ccc1I` [Ref. No. 23, 2-(2′-Iodo-5′-Nitro-Benzamido)-2-Thiazoline], the pIC50 was 4.09.

A further data set deals with M14 cells. Description: IC50 assay, inhibition of cell proliferation and growth, M14. Format: cell-based, human. Conditions: Homo sapiens; M14 melanoma cell line; neutral red or crystal violet; read-out: IC50 Concentrations, M14. How it is done: as §1, §2, §3, §6, §7
In the case of `O=C(NC1=NCCS1)c1cc([N+](=O)[O-])ccc1I` [Ref. No. 23, 2-(2′-Iodo-5′-Nitro-Benzamido)-2-Thiazoline], the pIC50 was 3.82.

The data set is the same for the next values; noted with them: M14 melanoma cell line; neutral red or crystal violet; read-out: IC50 Concentrations, M14.
With “N-(3′-Pyridyl)-2-Iodo-5-Nitrophenyl Hydrazide [Ref. No. 11]”, the pIC50 was 3.33.
For “N-(4′-Pyridyl)-2-Iodo-5-Nitrophenyl Hydrazide [Ref. No. 10]”, the pIC50 was less than 3.30.

In a further data set the test system is A549 cells. The data set is described as follows: IC50 assay, inhibition of cell proliferation and growth, A549. Format: cell-based, human. Particulars: A549 bronchogenic cell line; neutral red or crystal violet; read-out: IC50 Concentrations, A 549. How it is done:
as §1, §2, §3, §6, §7
Take “N-(3′-Pyridyl)-2-Iodo-5-Nitrophenyl Hydrazide [Ref. No. 11]”: the pIC50 is 3.41.
In the case of “N-(4′-Pyridyl)-2-Iodo-5-Nitrophenyl Hydrazide [Ref. No. 10]”, the pIC50 was less than 3.30.

Staying with this data set, now noted: Homo sapiens; A549 bronchogenic cell line; neutral red or crystal violet; read-out: IC50 Concentrations, A 549.
As for `O=C(NC1=NCCS1)c1cc([N+](=O)[O-])ccc1I` [Ref. No. 23, 2-(2′-Iodo-5′-Nitro-Benzamido)-2-Thiazoline], the pIC50 was less than 3.30.

The subject of another data set is SK-MEL-5 cells. The data set is described as follows: IC50 assay, inhibition of cell proliferation and growth, SK-MEL-5. It counts as cell-based, human. Conditions: Homo sapiens; SK-MEL-5 melanoma cell line; neutral red or crystal violet; read-out: IC50 Concentrations, SK MEL-5. How it is done:
as §1, §2, §3, §6, §7
On to `O=C(NC1=NCCS1)c1cc([N+](=O)[O-])ccc1I` [Ref. No. 23, 2-(2′-Iodo-5′-Nitro-Benzamido)-2-Thiazoline], for which the pIC50 was 3.90.

Still in this data set, the particulars now being: SK-MEL-5 melanoma cell line; neutral red or crystal violet; read-out: IC50 Concentrations, SK MEL-5.
For “N-(3′-Pyridyl)-2-Iodo-5-Nitrophenyl Hydrazide [Ref. No. 11]”, the pIC50 was 3.38.
The same measure, in the same setting: with “N-(4′-Pyridyl)-2-Iodo-5-Nitrophenyl Hydrazide [Ref. No. 10]” the figure was less than 3.30.

Another data set has as its system B16 cells. The data set is described as follows: IC50 assay, inhibition of cell proliferation and growth, B16. It counts as cell-based. Particulars: B16 murine melanoma cell line; neutral red or crystal violet; read-out: IC50 Concentrations, B16. The procedure: as §1, §2, §3, §6, §7
Consider “N-(3′-Pyridyl)-2-Iodo-5-Nitrophenyl Hydrazide [Ref. No. 11]”, for which the pIC50 is 3.89.
On the same count and under the same terms, the figure for “N-(4′-Pyridyl)-2-Iodo-5-Nitrophenyl Hydrazide [Ref. No. 10]” is 3.52.

Staying with this data set, now noted: Mus musculus; B16 murine melanoma cell line; neutral red or crystal violet; read-out: IC50 Concentrations, B16.
As for `O=C(NC1=NCCS1)c1cc([N+](=O)[O-])ccc1I` [Ref. No. 23, 2-(2′-Iodo-5′-Nitro-Benzamido)-2-Thiazoline], the pIC50 was 3.89.

In the next data set the test system is MCF7 cells. The data set is described as follows: IC50 assay, inhibition of cell proliferation and growth, MCF7. It counts as cell-based, human. Conditions: Homo sapiens; MCF7 breast adenocarcinoma cell line; neutral red or crystal violet; read-out: IC50 Concentrations, MCF 7. How it is done: as §1, §2, §3, §6, §7
Consider `O=C(NC1=NCCS1)c1cc([N+](=O)[O-])ccc1I` [Ref. No. 23, 2-(2′-Iodo-5′-Nitro-Benzamido)-2-Thiazoline], for which the pIC50 is 3.79.

Still in this data set, the particulars now being: MCF7 breast adenocarcinoma cell line; neutral red or crystal violet; read-out: IC50 Concentrations, MCF 7.
As to “N-(4′-Pyridyl)-2-Iodo-5-Nitrophenyl Hydrazide [Ref. No. 10]”, the pIC50 was less than 3.30.

For a further data set, the system named is L1210 cells. The data set is described as follows: IC50 assay (XTT), inhibition of cell proliferation and growth, L1210. Particulars: L1210 murine leukemia cell line; XTT dye conversion; read-out: IC50 Concentrations, L1210. Format: cell-based. How it is done:
as §1, §2, §3, §5, §4
On to “N-(3′-Pyridyl)-2-Iodo-5-Nitrophenyl Hydrazide [Ref. No. 11]”, for which the pIC50 is not above 4.26.
For the compound “N-(4′-Pyridyl)-2-Iodo-5-Nitrophenyl Hydrazide [Ref. No. 10]”, the pIC50 was less than 4.73.

The data set is the same for the next values; noted with them: Mus musculus; L1210 murine leukemia cell line; XTT dye conversion; read-out: IC50 Concentrations, L1210.
`O=C(NC1=NCCS1)c1cc([N+](=O)[O-])ccc1I` [Ref. No. 23, 2-(2′-Iodo-5′-Nitro-Benzamido)-2-Thiazoline]: the pIC50 was less than 3.30.
